Here are results for one molecule from patent publication US20120207766A1, “INTRACELLULAR TOLL-LIKE RECEPTORS PATHWAYS AND AXONAL DEGENERATION” (priority 2009, published 2012).

One assay relates to MOG-myelitis. The assay is described as follows: MOG peptide myelitis, neurological deficit scoring after systemic mianserin. The following applies: systemic administration; FIG. 12 panels B and C, n=8. It counts as in vivo, mice. The protocol:
Induction of MOG peptide myelitis, and clinical evaluation. MOG peptide myelitis is elicited in 3 month old male mice by subcutaneous flank administration of 300 μg of rodent MOG peptide 35-55 emulsified in CFA. The mice receive 75 ng of pertussis toxin intraperitoneally on days 0 and 2, and are weighed and scored daily for neurological deficits by 2 blinded observers. Neurological scoring is on a 5 point scale: limp tail or waddling gait=1; limp tail and waddling gait=2; single limb paresis and ataxia 2.5; double limb paresis=3; single limb paralysis and paresis of a second limb=3.5; full paralysis of 2 limbs=4; and death (or sacrifice owing to inanition=5) (Bannerman et al, Brain 128:1877-1886 2005; Bannerman et al., Glia 55:57-64 2008; and Soulika et al, J Neurosci 29:14965-14979 2009).
Mianserin treatment. Mice are induced with MOG-myelitis as described. Groups of mice initially receive intraperitoneally 1-10 mg/kg/day. The start day can vary between days 5-12 (before disease onset) and 14-20 (after disease onset). Peripheral T cell responses and CNS infiltration are analyzed by flow cytometry. […] The mice are perfused with 4% paraformaldehyde and sections from lumbar spinal cord arestained with various antibodies and analyzed by confocal microscopy. […]

The test system of another assay is MOG-specific Th17 cell. The assay is described as follows: Peripheral T cell responses (Th17) by flow cytometry in MOG-myelitis mice. It counts as in vivo. The following applies: systemic administration; FIG. 12 panel A, each bar a single mouse. On the procedure: Mianserin treatment. Mice are induced with MOG-myelitis as described. Groups of mice initially receive intraperitoneally 1-10 mg/kg/day. The start day can vary between days 5-12 (before disease onset) and 14-20 (after disease onset). Peripheral T cell responses and CNS infiltration are analyzed by flow cytometry. Lumbar spinal cords are examined immunohistologically to characterize the degrees of axonal degeneration, secondary demyelination and CNS infiltration by peripheral immune cells during the various stages of MaG-myelitis. The mice are perfused with 4% paraformaldehyde and sections from lumbar spinal cord arestained with various antibodies and analyzed by confocal microscopy. In every step the degree of inflammation, axonal degeneration and demyelination is confirmed by using the following antibodies: CD11b (macrophages), CD3 (T cells), CD11c (dendritic cells), Glial fibrillary acidic protein (GFAP astroglia), Myelin Basic protein (MBP, for myelin), and SMI32 (hypophosphorylated NF—H, disrupted axons). To examine intracellular TLR and partner molecules antibodies against TLR3, 8 and 9, MyD88 and IRAK4, NALP1, ASC, active caspase-1, and IL-1 r3 are used.
Peripheral T cell responses. […]
Flow cytometry. […] Immunostained cells are analyzed using a Cyan FACS (Dako Cytomation).

`CN1CCN2c3ccccc3Cc3ccccc3C2C1` (centres unmarked) [mianserin]: the “neurological symptoms associated with MOG-myelitis” value in the assay with MOG-myelitis is “diminishes”. Further, the “MOG-specific Th17 cell generation in the periphery” value with MOG-specific Th17 cell is “does not affect”.
